Assay results taken from patent US8063221B2, “Aminoquinolones as GSK-3 inhibitors” (Kyorin Pharmaceutical Co., Ltd., priority 2006, dated 2011).
pIC50: −log10 of the molar value. Converted amounts (≈) assume the structure as drawn. Like-named read-outs stand apart in the source and are kept apart here.

How the values were obtained:
[1] = target: T1, recombinant full-length human GSK3β (Homo sapiens, UniProt P49841); assay: Luciferase-coupled cell-free GSK3β kinase assay; assay type: biochemical
T1 construct: recombinant full-length human GSK3β (Upstate); purchased Upstate
In short: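 GSK3β, 10-25 ng, was incubated with compound for 1 h at 30° C in MOPS pH 7.0 buffer containing 62.5 μM phospho-glycogen synthase peptide-2 and 5 μM ATP. Remaining ATP was read by KinaseGlo luminescence, and IC50 was fitted from % inhibition relative to maximal inhibition.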

E. coli, ATCC8739 = assay: Antibacterial activity (MIC), E. coli; assay type: cell-based; conditions: Escherichia coli
In short: (§1)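 MIC, the lowest compound concentration inhibiting bacterial growth in culture medium, determined by dilution method per CLSI M7-A4 guidance; reported in μM.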

S. aureus Smith = assay: Antibacterial activity (MIC), S. aureus; assay type: cell-based; conditions: Staphylococcus aureus
In short: as §1

[2] = Animal Study 2 (oral glucose tolerance test); design: species or system Crlj:CD1 (ICR) mice; conditions: Mus musculus, read-out: In vivo studies 300 mg/kg (oral glucose tolerance test, % decrease)
Text: The results of in vivo oral glucose tolerance test (Example 39), expressed as % decrease, are presented as follows: […]
Animal Study 2 (Oral Glucose Tolerance Test)
Male Crlj:CD1 (ICR) mice were obtained from Charles River Laboratries Japan (Yokohama, Japan). All mice were given a standard diet (Clea Japan, Tokyo, Japan) and tap water ad libitum. All institutional guidelines for animal care and use were applied in this study. Test compounds were suspended in 0.3% carboxymethyl-cellulose sodium salt (CMC-Na; Sigma, St. Louis, Mo.). After fasting for 15-17 hr, the test compound (300 mg/kg) or vehicle (0.3% CMC-Na) was orally administered to 7-week-old ICR mice. Glucose solution (5 g/kg) was orally administered at 30 min after test compound treatment. Blood samples were collected from tail vein using capillary tubes containing EDTA·2K before test compound treatment, and at 0, 0.5, 1, and 2 hr after glucose load. The blood samples were centrifuged at 2,500×g for 5 min and separated plasma was kept on ice and analyzed in the same day. Plasma glucose levels were determined using the glucose C II-test (Wako Pure Chemical Industries, Osaka, Japan).
The sum of plasma glucose levels at 0.5 and 1 hr after glucose load was compared to that of vehicle treatment, and results were presented as percent decrease.

[3] = Animal Study 1 (blood glucose in db/db mice); assay type: in vivo; conditions: 100 mg/kg orally, 0-6 hr after administration
Procedure: Animal Study 1 Male obese hyperglycemic mice (db/db) and lean mice (C57BL/6J) were obtained from Charles River Laboratories Japan (Yokohama, Japan). All mice were given a standard diet (Clea Japan, Tokyo, Japan) and tap water ad libitum. All institutional guidelines for animal care and use were applied in this study. Test compounds were suspended in 0.3% carboxymethyl-cellulose sodium salt (CMC-Na; Sigma, St. Louis, Mo.). After fasting for 2 hr, the test compounds (100 mg/kg) were administered orally to 7-week-old db/db mice. Vehicle (0.3% CMC-Na) was administered orally to both 7-week-old db/db mice and lean mice. Blood samples were collected from tail vein using capillary tubes containing EDTA·2K at 0, 0.5, 1, 2, 4, and 6 hr after the administration. The blood samples were centrifuged at 2,500×g for 5 min and separated plasma was kept on ice and analyzed in the same day. Plasma glucose levels were determined using the glucose CII-test (Wako Pure Chemical Industries, Osaka, Japan). CHIR99021 is a selective inhibitor of GSK3 enzyme known in the art (see, Ring D B et al., Selective GSK-3 inhibitors potentiate insulin activation of glucose transport and utilization in vitro and in vivo. Diabetes 2003, 52(3): 588-595).

[4] = ATCC8739, Table 2, E. coli ATCC8739, read-out: Antimicrobial MIC [μM] E. Coli
[5] = Table 2, S. aureus Smith, read-out: Antimicrobial MIC [μM] S. aureus
[6] = Table 2, 300 mg/kg oral, ICR mice, plasma glucose 0.5 and 1 hr after glucose load vs vehicle
[7] = ATCC8739, Table 1, E. coli ATCC8739, read-out: Antibacterial MIC (μM) E.Coli
[8] = Table 1, read-out: Antibacterial MIC (μM) S. aureus Smith
[9] = Table 1, 300 mg/kg oral, ICR mice, plasma glucose 0.5 and 1 hr after glucose load vs vehicle

T1 sequence (P49841 whole entry): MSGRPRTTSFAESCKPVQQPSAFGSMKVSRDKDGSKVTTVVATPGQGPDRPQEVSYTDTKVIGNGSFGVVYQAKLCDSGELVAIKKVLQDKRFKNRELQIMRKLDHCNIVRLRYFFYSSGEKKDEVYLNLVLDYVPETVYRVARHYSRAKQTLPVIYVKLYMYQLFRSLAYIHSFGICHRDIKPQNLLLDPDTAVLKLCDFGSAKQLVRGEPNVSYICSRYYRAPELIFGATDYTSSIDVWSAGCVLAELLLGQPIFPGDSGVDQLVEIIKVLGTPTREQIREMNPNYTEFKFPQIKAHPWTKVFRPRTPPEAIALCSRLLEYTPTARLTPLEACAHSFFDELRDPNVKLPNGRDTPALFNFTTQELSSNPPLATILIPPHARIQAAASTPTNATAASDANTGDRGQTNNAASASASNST

Row | SMILES | pIC50 ([1]; Table 2) | MIC (E. coli, ATCC8739; [4]) [µM] | MIC (S. aureus Smith; [5]) [µM] | inhibition in vivo at 300 mg/kg [2, 6] [%] | other results
1 | CC1(C)Cn2cc(C(=O)O)c(=O)c3c(N)c(F)c(NCCNc4ccccn4)c(c32)O1 [compound 57] | 6.30 to 7.00 | 10 to 50 (≈ 4.27 to 21.4 µg/mL) | 10 to 50 (≈ 4.27 to 21.4 µg/mL) | > 20 | –
2 | C[C@H]1COc2c(NCCNc3ccccn3)c(F)c(N)c3c(=O)c(C(=O)O)cn1c23 [compound 18] | > 7.00 | 0.5 to 10 (≈ 0.207 to 4.13 µg/mL) | 0.5 to 10 (≈ 0.207 to 4.13 µg/mL) | 10 to 20 | –
3 | Nc1c(F)c(NCCCn2ccnc2)c(F)c2c1c(=O)ccn2CCc1ccccc1 [compound 62] | – | – | – | – | pIC50 ([1]; Table 1): 6.30 to 7.00; MIC (E. coli, ATCC8739; [7]): > 50 µM; MIC (S. aureus Smith; [8]): > 50 µM; inhibition in vivo at 300 mg/kg [2, 9]: 5 to 10%
4 | CC1(C)COc2c(NCCCn3ccnc3)c(F)c(N)c3c(=O)c(C(=O)O)cn1c23 [compound 33] | 6.30 to 7.00 | > 50 | > 50 | > 20 | –
5 | COc1c(NCCNc2ccccn2)c(F)c(N)c2c(=O)c(C(=O)O)cn(C3CC3)c12 [compound 71] | – | – | – | – | pIC50 ([1]; Table 1): 6.30 to 7.00; MIC (E. coli, ATCC8739; [7]): 0.5 to 10 µM (≈ 0.214 to 4.27 µg/mL); MIC (S. aureus Smith; [8]): 0.5 to 10 µM (≈ 0.214 to 4.27 µg/mL); inhibition in vivo at 300 mg/kg [2, 9]: 10 to 20%
6 | Cc1c[nH]c(-c2cnc(NCCNc3ccc(C#N)cn3)nc2-c2ccc(Cl)cc2Cl)n1 [CHIR99021] | – | – | – | – | blood glucose levels (FIG. 1) [3]: drop in blood glucose levels
7 | C[C@@H]1COc2c(NCCNc3ccccn3)c(F)c(N)c3c(=O)c(C(=O)O)cn1c23 [compound 31] | 6.30 to 7.00 | – | – | – | MIC (E. coli, ATCC8739; ATCC8739, read-out: Antimicrobial MIC [μM] E. Coli): 10 to 50 µM (≈ 4.13 to 20.7 µg/mL); MIC (S. aureus Smith; read-out: Antimicrobial MIC [μM] S. aureus): 10 to 50 µM (≈ 4.13 to 20.7 µg/mL); inhibition in vivo at 300 mg/kg ([2]; po): > 20%
8 | Nc1c(F)c(NCCNc2ccccn2)cc2c1c(=O)c(C(=O)O)cn2CCc1ccccc1 [Example 119] | > 7.00 | 10 to 50 (≈ 4.61 to 23.1 µg/mL) | 10 to 50 (≈ 4.61 to 23.1 µg/mL) | < 5 | –
